The test system of one assay is NCI-H929. The assay is described as follows: Antiproliferative activity against human NCI-H929 cells assessed as decrease in cell viability measured after 72 hrs by MTT assay. It is filed as functional, cell-based. The conditions noted are these: NCI-H929, 72 h. A general note: Tetrazolium assays rely on reduction of a dye to a coloured formazan, in cell work by metabolically active cells.

Assay [1] concerns MV4-11. The assay is described as follows: Antiproliferative activity against human MV4-11 cells assessed as decrease in cell viability measured after 72 hrs by MTT assay. It is filed as functional, cell-based. Particulars: MV4-11, 72 h.
A further assay relates to SK-BR-3. Description: Antiproliferative activity against human SK-BR-3 cells assessed as decrease in cell viability measured after 72 hrs by MTT assay. Format: functional, cell-based. The conditions noted are these: SK-BR-3, 72 h.
For another assay, the system named is NCI-H23. Description: Antiproliferative activity against human NCI-H23 cells assessed as decrease in cell viability measured after 72 hrs by MTT assay. It is filed as functional, cell-based. Particulars: NCI-H23, 72 h.
The next assay has as its system K562. The assay is described as follows: Antiproliferative activity against human K562 cells assessed as decrease in cell viability measured after 72 hrs by MTT assay. It is filed as functional, cell-based. The conditions noted are these: K562, 72 h.
Assay [2] concerns MV4-11. Description: Antitumor activity against human MV4-11 cells xenografted in BALB/c nude mouse assessed as tumor growth inhibition by measuring T/C ratio at 10 mg/kg, ip administered every two days for 14 days relative to control. Format: functional. Particulars: time 14 day. In general terms: In xenograft studies the graft and the host belong to different species.
For assay [3], the system named is MV4-11. The assay is described as follows: Induction of apoptosis in human MV4-11 cells xenografted in BALB/c nude mouse assessed as induction of PARP cleavage at 10 mg/kg, ip administered every two days for 14 days by Western blot analysis. Format: functional, organism-based. The conditions noted are these: time 14.0 day.

Usually IC50 stands for the concentration that gives 50% inhibition. Usually T/C stands for the result in the treated group divided by that in the control group, in per cent.

Each structure is given as a SMILES string. Activity calls are given as the source filed them. The rule behind the calls is not given here.

On to `Cc1c2c(nn1C)CSCc1cc(n(C)n1)CSc1cc(c3ccccc3c1)OCCCc1c(C(=O)O)n(C)c3c-2c(Cl)ccc13` [AZD-5991], for which the IC50 with NCI-H929 was determined as 36 nM; with MV4-11 [1] it was 24 nM; with SK-BR-3, 30000 nM; in the assay on NCI-H23, 190 nM; in the assay on K562 it was 29600 nM. Moreover, in the assay with MV4-11 [2], the T/C is on record as 5.18%. In addition, the outcome in the assay on MV4-11 [3] was Active.

Source of the values: ChEMBL document CHEMBL4834480, “Discovery of 3,5-Dimethyl-4-Sulfonyl-1H-Pyrrole-Based Myeloid Cell Leukemia 1 Inhibitors with High Affinity, Selectivity, and Oral Bioavailability” (J Med Chem, 2021).
